Test results as given in US20170247459A1, “COMBINATION THERAPY OF ANTIBODIES AGAINST HUMAN CSF-1R AND USES THEREOF” (HOFFMANN-LA ROCHE INC., priority 2012, published 2017).

How the values were obtained:
MC38 colon carcinoma = assay: Tumor growth inhibition with chemotherapy or cancer immunotherapy combinations in subcutaneous syngeneic MC38 colon carcinoma model; format: in vivo, C57BL/6N mice; conditions: for TCR (day 21) / TGI (day 21): compared to control antibody; for TGI (day 21): antibody 30 mg/kg i.p. weekly; for Median time to progression TV > 700 mm3: mouse, in vivo
Text: Inhibition of Tumor Growth Under Treatment with Anti-CSF-1R Monoclonal Antibody in Combination with Chemotherapy or Cancer Immunotherapy in Subcutaneous Syngeneic MC38 Colon Carcinoma Models

primary tumor growth = assay: Docetaxel combined with anti-mouse CSF-1R antibody (separate experiment); format: in vivo
Procedure: Docetaxel was administered 3 times weekly as 1 cycle followed by 3 weeks drug holiday.

| Compound | TCR (day 21) (MC38 colon carcinoma) | TGI (day 21) (MC38 colon carcinoma) | Median time to progression TV > 700 mm3 (MC38 colon carcinoma) | npTCR (primary tumor growth; after 2 cycles of docetaxel) | TGI (primary tumor growth; after 2 cycles of docetaxel, docetaxel 3 mg/kg i.v., antibody 30 mg/kg i.p. weekly) | median survival time (primary tumor growth; in vivo) | TGI (day 21) (MC38 colon carcinoma; listed as IL2) |
| --- | --- | --- | --- | --- | --- | --- | --- |
| O=C1[O][Pt]2([NH][C@@H]3CCCC[C@H]3[NH]2)[O]C1=O [Oxaliplatin] | 0.54 | 46% | 21 | – | – | – | – |
| CC(=O)O[C@@]12CO[C@@H]1C[C@H](O)[C@@]1(C)C(=O)[C@H](O)C3=C(C)[C@@H](OC(=O)[C@H](O)[C@@H](NC(=O)OC(C)(C)C)c4ccccc4)C[C@@](O)([C@@H](OC(=O)c4ccccc4)[C@H]21)C3(C)C [docetaxel] | – | – | – | 0.55 | 75% | 154 days | – |
| Proleukin: IL-2 (Proleukin, Novartis) | 0.53 | 47% | 21 | – | – | – | 47% |
